Reference: patent US7026318B2 (Shionogi & Co., Ltd., priority 2000, dated 2006)
Like-named read-outs stand apart in the source and are kept apart here.

Key:
[1] = molecular target: human type I enzyme (sPLA2) (Homo sapiens, UniProt P04054); assay: Inhibition test of human secretory phospholipase A2, chromogenic assay, type I enzyme; assay type: biochemical
[2] = molecular target: T1, human type II enzyme (sPLA2) (Homo sapiens, UniProt P14555); assay: Inhibition test of human secretory phospholipase A2, chromogenic assay, type II enzyme; assay type: biochemical
T1 sequence (P14555 21-144): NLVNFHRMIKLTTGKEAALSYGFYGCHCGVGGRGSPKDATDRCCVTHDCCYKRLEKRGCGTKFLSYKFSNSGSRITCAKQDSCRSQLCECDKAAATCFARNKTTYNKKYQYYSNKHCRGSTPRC

human type V sPLA2 = molecular target: T2, human type V sPLA2 (Homo sapiens, UniProt P39877); assay: Inhibition test of human secretory phospholipase A2, chromogenic assay, type V enzyme; assay type: biochemical
T2 construct: made in house; unpurified culture supernatant
T2 sequence (P39877 21-138): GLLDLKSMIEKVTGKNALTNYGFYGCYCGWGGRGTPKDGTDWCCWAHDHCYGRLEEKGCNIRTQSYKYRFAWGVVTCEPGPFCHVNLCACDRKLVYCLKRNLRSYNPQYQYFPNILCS

human type X sPLA2 [3] = molecular target: T3, human type X sPLA2 (Homo sapiens, UniProt O15496); assay: Inhibition test of human secretory phospholipase A2, chromogenic assay, type X enzyme; assay type: biochemical
T3 construct: made in house; unpurified culture supernatant
T3 sequence (O15496 43-165): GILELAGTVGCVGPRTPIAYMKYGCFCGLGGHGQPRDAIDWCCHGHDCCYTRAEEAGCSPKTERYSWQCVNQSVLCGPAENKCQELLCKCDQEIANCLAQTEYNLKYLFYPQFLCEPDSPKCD

human type X sPLA2 [4] = molecular target: T3, human type X sPLA2; assay: Human type X sPLA2-induced oleic acid release in human colon carcinoma HT-29 cells; assay type: cell-based; settings: compound 10 μM, 100 nM human type X sPLA2, 30 min, percentage of the increase by type X sPLA2 (no treatment group = 100)
Description: Examination 15: Effects of sPLA2 Inhibitors on Human Type X sPLA2-Induced Oleic Acid Release in Human Colon Calcinoma Cell Lines, HT-29 Cells.
Human colon calcinoma cell lines, HT-29 cells (obtained from ATCC) were cultured in DMEM supplemented with 10% fetal calf serum. The cells were washed by phosphate-buffered saline (PBS), detached from culture plates by treatment with trypsin/EDTA solution and further washed by PBS. The resulting cells were resuspended in Hanks' buffered saline containing 0.1% bovine serum albumin (BSA) at a density of 12.5×10^6 cells/mL. Aliquots of the cell suspension (0.4 ml) were transferred into polypropylene tubes and test compounds dissolved in DMSO solution (final concentration; 10 μM) were added. After preincubation for 10 min at 37° C., 100 nM purified human type X sPLA2 enzyme (Hanasaki et al J. Biol. Chem. (1999) 274, 34203–34211) was added (final volume of 0.5 mL). After incubation for 30 min at 37° C., the reaction was stopped by the addition of 2 ml Dole's reagent (heptane:2-propanol:1M H2SO4=10:40:1, v/v/v).

human type X sPLA2 [5] = molecular target: T3, human type X sPLA2; assay: Type X sPLA2-induced PGE2 production in human colon carcinoma HT-29 cells; assay type: cell-based; settings: compound 10 μM; TNF-α-treated HT-29 cells; 100 nM human type X sPLA2, 3 h; percentage of PGE2 produced by type X sPLA2 (no treatment group = 100)
Description: Examination 16: Effects of sPLA2 Inhibitors on Type X sPLA2-Induced PGE2 Production in Human Colon Carcinoma Cell Lines, HT-29 Cells.
HT-29 cells were seeded into 24-well plates at a density of 2.5×10^5 cells/well. After incubation for 24 h, the cells were washed three times with PBS and incubated with 30 ng/mL of recombinant human tumor necrosis factor-α (R&D Systems, Inc.) in DMEM medium supplemented with 10% fetal bovine serum for 18 h at 37° C. After washing with PBS, the cells were preincubated with or without test compounds (at a final concentration of 10 μM; dissolved in DMSO) in Hanks' buffered saline containing 0.1% BSA for 10 min at 37° C., and then stimulated with 100 nM purified human type X sPLA2 enzyme in a final volume of 0.5 mL. After incubation for 3 h at 37° C, the culture supernatant was collected following the centrifugation for the removal of floating cells, and its PGE2 content was quantified with an enzyme-immunoassay kit (Cayman Chemicals Co.). From each data, the value in the absence of type X sPLA2 was subtracted. The amount of PGE2 in the presence of each test compound was expressed as the percentage of the PGE2 content produced by the addition of type X sPLA2 enzyme.

human type X sPLA2 [6] = molecular target: T3, human type X sPLA2; assay: Type X sPLA2-induced fatty acid release from isolated human lipoproteins (LDL); assay type: biochemical; settings: read-out: % of Inhibition (10 μM)
Description: Examination 17: Effects of sPLA2 Inhibitors on Type X sPLA2-Induced Fatty Acid Release From Isolated Human Lipoproteins.
LDL was isolated from human plasma by sequential ultracentrifugation method (Havel et al. J. Clin. Invest. 34,1345–1353 (1955)). LDL (0.5 mg/mL) was incubated with 10 nmol/L of human type X sPLA2 in the assay mixture containing 12.5 mmol/L Tris-HCl buffer (pH 8.0), 125 mg/L bovine serum albumin and 1 mmol/L calcium chloride for 4 hr at 37° C. Fatty acids released from lipoprotein were extracted by Dole's method (Dole et al. J. Biol. Chem. 235, 2595–2599 (1960)), labeled with 9-anthryldiazomethane according to a known method (Hanasaki et al., J. Biol. Chem. 274, 34203–34211 (1999)) and measured by detecting the fluorescence of labeled fatty acids using reverse-phase high performance chromatography (LiChroCART 125-4 Superspher 100 RP-18 column (Merck). For the inhibition assay of drugs, sPLA2 inhibitors (final concentration of 10 μM) were added at almost the same time as the addition of sPLA2 into the reaction solution. The results are presented in Table 10.

[7] = recombinant human sPLA2 type I, chromogenic assay, 30 min, read-out: IC50 type I
[8] = human sPLA2 type II, chromogenic assay, 30 min, read-out: IC50 type II
[9] = human sPLA2 type V (CHO supernatant), chromogenic assay, 45 min, read-out: IC50 type V
[10] = human sPLA2 type X (CHO supernatant), chromogenic assay, 30 min, read-out: IC50 type X

human type I enzyme (sPLA2), sequence (P04054 23-148): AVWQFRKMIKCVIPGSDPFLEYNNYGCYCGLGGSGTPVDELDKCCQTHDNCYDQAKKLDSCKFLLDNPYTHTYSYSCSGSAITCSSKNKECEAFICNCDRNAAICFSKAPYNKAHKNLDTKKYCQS

Structure (SMILES) | melting point [°C] | IC50 [1, 7] [µM] | IC50 [2, 8] [µM] | IC50 (human type V sPLA2; [9]) [µM] | further results
CCS(=O)(=O)NC(=O)COc1cccc2c1c(C(=O)C(N)=O)c(CC(C)C)n2Cc1ccccc1 | 200 to 201 | – | – | – | –
CCCS(=O)(=O)NC(=O)COc1cccc2c1c(C(=O)C(N)=O)c(CC(C)C)n2Cc1ccccc1 | 181 to 183 | – | – | – | –
CC(C)Cc1c(C(=O)C(N)=O)c2c(OCC(=O)NS(=O)(=O)C(C)C)cccc2n1Cc1ccccc1 | 218.5 to 220 | – | – | – | –
CCCCS(=O)(=O)NC(=O)COc1cccc2c1c(C(=O)C(N)=O)c(CC(C)C)n2Cc1ccccc1 | 219.5 to 221 | – | – | – | –
Cc1cn2c(Cc3ccccc3)c(CC(C)C)c(C(=O)C(N)=O)c2c(OCC(=O)O)n1 [Compound I-1] | 206 to 208 | > 0.7 | > 1 | > 1 | IC50 (human type X sPLA2 [3]; [10]): 0.032 µM
Cc1cn2c(CC3CCCCC3)c(CC(C)C)c(C(=O)C(N)=O)c2c(OCC(=O)O)n1 [Compound I-2] | 209 to 210 | > 0.7 | > 1 | > 1 | IC50 (human type X sPLA2 [3]; [10]): 0.043 µM
Cc1cn2c(CC3CCCC3)c(CC(C)C)c(C(=O)C(N)=O)c2c(OCC(=O)O)n1 [Compound I-3] | 193 to 194.5 | > 0.7 | > 1 | > 1 | IC50 (human type X sPLA2 [3]; [10]): 0.048 µM
Cc1cn2c(CCc3ccccc3)c(CC(C)C)c(C(=O)C(N)=O)c2c(OCC(=O)O)n1 [Compound I-4] | 202 to 203 | – | – | – | Oleic acid release (human type X sPLA2 [4]): 13.8 ± 1.8 %; PGE2 production (human type X sPLA2 [5]): 35.3 ± 40.2 %
CCCCc1c(C(=O)C(N)=O)c2c(OCC(=O)O)nc(C)cn2c1Cc1ccccc1 [Compound I-5] | 205 to 207 | – | – | – | –
Cc1cn2c(Cc3ccccc3)c(Cc3ccccc3)c(C(=O)C(N)=O)c2c(OCC(=O)O)n1 [Compound I-7] | 258 to 260 | – | – | – | –
Cc1cc(OCC(=O)O)c2c(C(=O)C(N)=O)c(CC(C)C)c(Cc3ccccc3)n2n1 [Compound I-9] | 245 to 247 | > 0.7 | > 1 | > 1 | IC50 (human type X sPLA2 [3]; [10]): 0.022 µM
CC(C)Cc1c(C(=O)C(N)=O)c2c(OCC(=O)O)cccc2n1Cc1ccc(F)cc1 [Compound I-11] | 172 to 173.5 | > 0.7 | > 1 | > 1 | IC50 (human type X sPLA2 [3]): 0.012 µM
CC(C)Cc1c(C(=O)C(N)=O)c2c(OCC(=O)O)cccc2n1CC1CCCCC1 [Compound I-12] | 195.5 to 197 | > 0.7 | > 1 | > 1 | IC50 (human type X sPLA2 [3]): 0.032 µM
Cc1cc(OCC(=O)O)c2c(C(=O)C(N)=O)c(CC(C)C)n(Cc3ccccc3)c2c1 [Compound I-13] | 220 to 221.5 | > 0.7 | > 1 | > 1 | IC50 (human type X sPLA2 [3]): 0.028 µM
CC(C)Cc1c(C(=O)C(N)=O)c2c(OCC(=O)O)cccc2n1-c1ccccc1 [Compound I-14] | 200.5 to 202 | – | – | – | –
Cc1cn2c(Cc3ccccc3)c(CC(C)C)c(C(=O)C(N)=O)c2c(OCC(=O)NS(=O)(=O)c2ccccc2)n1 [Compound I-15] | 193 to 195 | > 0.7 | > 1 | > 1 | IC50 (human type X sPLA2 [3]; [10]): 0.037 µM
Cc1cn2c(Cc3ccccc3)c(CC(C)C)c(C(=O)C(N)=O)c2c(OCC(=O)NS(C)(=O)=O)n1 [Compound I-16] | 211 to 212 | – | – | – | –
CCS(=O)(=O)NC(=O)COc1nc(C)cn2c(Cc3ccccc3)c(CC(C)C)c(C(=O)C(N)=O)c12 [Compound I-17] | 214 to 215 | – | – | – | –
CCCS(=O)(=O)NC(=O)COc1nc(C)cn2c(Cc3ccccc3)c(CC(C)C)c(C(=O)C(N)=O)c12 [Compound I-18] | 205 to 207 | – | – | – | –
Cc1cn2c(Cc3ccccc3)c(CC(C)C)c(C(=O)C(N)=O)c2c(OCC(=O)NS(=O)(=O)C(C)C)n1 [Compound I-19] | 196 to 198 | – | – | – | –
CC(C)Cc1c(C(=O)C(N)=O)c2c(OCC(=O)NS(=O)(=O)c3ccccc3)cccc2n1Cc1ccccc1 [Compound I-21] | – | – | – | – | IC50 (human type X sPLA2 [3]): 0.008 µM; Oleic acid release (human type X sPLA2 [4]): 11.8 ± 0.6 %; PGE2 production (human type X sPLA2 [5]): −6.6 ± 7.1 %
CC(C)Cc1c(C(=O)C(N)=O)c2c(OCC(=O)NS(=O)(=O)c3ccccc3)cccc2n1Cc1ccc(F)cc1 [Compound I-22] | 172 to 173 | – | – | – | IC50 [1]: > 0.7 µM; IC50 [2]: > 1 µM; IC50 (human type V sPLA2): > 1 µM; IC50 (human type X sPLA2 [3]): 0.008 µM; inhibition at 10 µM (human type X sPLA2 [6]): 91.7%
CC(C)Cc1c(C(=O)C(N)=O)c2c(OCC(=O)NS(C)(=O)=O)cccc2n1Cc1ccccc1 [Compound I-23] | – | > 0.7 | > 1 | > 1 | IC50 (human type X sPLA2 [3]): 0.006 µM; Oleic acid release (human type X sPLA2 [4]): −2.0 ± 5.1 %; PGE2 production (human type X sPLA2 [5]): 9.0 ± 28.1 %
Cc1cc(OCC(=O)NS(=O)(=O)c2ccccc2)c2c(C(=O)C(N)=O)c(CC(C)C)n(Cc3ccccc3)c2c1 [Compound I-24] | 145 to 147 | > 0.7 | > 1 | > 1 | IC50 (human type X sPLA2 [3]): 0.023 µM
Cc1cc(OCC(=O)NS(C)(=O)=O)c2c(C(=O)C(N)=O)c(CC(C)C)n(Cc3ccccc3)c2c1 [Compound I-25] | 211 to 214 | > 0.7 | > 1 | > 1 | IC50 (human type X sPLA2 [3]): 0.007 µM
CC(C)Cc1c(C(=O)C(N)=O)c2c(OCC(=O)NS(=O)(=O)C(F)(F)F)cccc2n1Cc1ccccc1 [Compound I-30] | – | – | – | – | inhibition at 10 µM (human type X sPLA2 [6]; compound 10 μM, human LDL 0.5 mg/mL, 10 nmol/L human type X sPLA2, 4 hr at 37° C.): 97.5%
Cc1cc(OCC(=O)NS(=O)(=O)c2ccccc2)c2c(C(=O)C(N)=O)c(CC(C)C)c(Cc3ccccc3)n2n1 [Compound I-32] | – | > 0.7 | > 1 | > 1 | IC50 (human type X sPLA2 [3]; [10]): 0.046 µM
CC(C)Cc1c(CC(N)=O)c2c(OCC(=O)NS(=O)(=O)C(C)C)cccc2n1Cc1ccccc1 [Compound I-34] | 189 to 190 | – | – | – | –
Cc1cn2c(Cc3ccccc3)c(CC(C)C)c(CC(N)=O)c2c(OCC(=O)NS(C)(=O)=O)n1 [Compound I-35] | 188 to 190 | – | – | – | –
Cc1cn2c(Cc3ccccc3)c(CC(C)C)c(CC(N)=O)c2c(OCC(=O)NS(=O)(=O)C(C)C)n1 [Compound I-36] | 162 to 163 | – | – | – | –
